The values that follow come from patent US11052118B2, “Enhanced stem cell composition” (Fate Therapeutics, Inc., priority 2011, dated 2021).

Assay [1] concerns CD34+ cells migrating towards SDF1. Nature of the assay: SDF-1 transwell migration assay. The assay is classed as cell-based, human. The conditions noted are these: cells treated 4 hours at 37° C. with 10 μM, 50 ng/mL SDF1 in lower chamber, 2.5 hours; listed as dmPGE2. Here is the method:
Transwell migration assays were performed using 96-well chemotaxis chambers, […] pore size polycarbonate membrane (Corning Inc., Corning, N.Y.) in accordance with manufacturer's instructions. Briefly, CD34^+ cells were then treated for 4 hours at 37° C. with 16,16-dimethyl PGE2 (dmPGE2), dmPGE2 and glucocorticoid, or DMSO control at a concentration of 10 μM in StemSpan® media (Stem Cell Technology, Vancouver, Canada). The cells were then washed by centrifugation (300×g for 10 minutes) and resuspended in transwell assay buffer (Phenol Red Free RPMI media (Mediatech), 0.5% lipid free BSA (Sigma-Aldrich) at a concentration of 40,000-60,000 cells/75 μl.
To test the duration of the treatment effects, one portion of treated cells was washed by centrifugation (300×g for 10 minutes) and resuspended in StemSpan® media for 4 hours at 37° C. without dmPGE2, glucocorticoids, or DMSO and then washed again by centrifugation (300×g for 10 minutes) and resuspended in transwell assay buffer (Phenol Red Free RPMI media (Mediatech), 0.5% lipid free BSA (Sigma-Aldrich) at a concentration of 40,000-60,000 cells/75 μl.
Seventy-five μl of cell suspension was added to the upper chamber of the plate, while 235 μl of transwell assay media containing 0 or 50 ng/ml SDF1α (R&D system, Minneapolis, Minn.) was added to the bottom well. […]

The test system of assay [2] is CXCR4 surface protein on CD34+ cells from human bone marrow. Nature of the assay: CXCR4 surface protein expression by flow cytometry, bone marrow CD34+ cells. The assay is classed as cell-based. The settings on record: BM CD34+ cells, 10 μM each agent, 4 hours at 37° C. in SFEM, then 2 hours in SFEM.
Assay [3] deals with CXCR4 mRNA in mobilized peripheral blood CD34+ cells. The assay can be described thus: CXCR4 qPCR using the Applied Biosystems StepOnePlus, mobilized peripheral blood CD34+ cells. The assay is classed as cell-based, human. Here is the method: (§1) Real-time PCR transcript quantitation from ex vivo treated cord CD34^+ cells (Stem Cell Technologies, Vancouver, BC, Canada) and mobilized peripheral blood CD34^+ cells (All Cells, LLC, Emoryville, Calif., USA) was performed using the Applied Biosystems StepOne Plus system (Life Technologies Corporation, Carlsbad, Calif., USA) (see FIG. 3). […] After treatment, cells were washed with SFEM and centrifuged at 300 g for 10 minutes.
(§2) Total RNA was then isolated from treated cells using Pico Pure RNA Isolation Kit (Molecular Devices, Sunnyvale, Calif., USA). Complimentary DNA (cDNA) was reverse transcribed from 50 ng of isolated total RNA using the High-Capacity cDNA Reverse Transcription Kit (Life Technologies).
(§3) Real-Time PCR analysis was run on the cDNA samples in duplicate. The reaction mix contained 1 μL Gene Specific Taqman Assay (20λ) and 10 μL Gene Expression Master Mix (Life Technologies) with the remaining volume of 9 μL contained 10 ng cDNA and sterile diH2O.
(§4) CXCR4 results (assay from Table 1) were analyzed using Applied Biosystems StepOne Software v2.1 Analysis software. Average Cts were calculated from the sample replicates and delta-delta Cts (ΔΔCt) were calculated using GAPDH results (assay from Table 1) as a reference gene against a vehicle only sample. […] Error bars depict +/− the Standard Deviation (SD) of the replicate measurements (See FIGS. 1-3, 5, and 6).

The subject of assay [4] is CXCR4 mRNA in human umbilical cord blood derived CD34+ cells. Nature of the assay: CXCR4 qPCR using the Fluidigm platform. In kind it is cell-based. The conditions noted are these: 10 μM single agent in SFEM, 4 h, 37° C., compared to DMSO treated cells. Here is the method: Real-time PCR transcript quantitation of gene expression from ex vivo treated human umbilical cord blood derived CD34^+ cells (Stem Cell Technologies, Vancouver, BC, Canada) was performed using the BioMark Dynamic Array microfluidics system (Fluidigm Corporation, South San Francisco, Calif., USA).
CD34^+ cells derived from cord blood or mobilized peripheral blood were treated in Serum-Free Expansion Medium (SFEM; e.g., StemSpan® from StemCell Technologies, Inc.) for four hours at 37° C., 5% CO2 with 10 uM prostaglandin pathway agonist alone or in combination with 10 uM of a glucocorticoid. Prostaglandin pathway agonists included 16,16-dimethyl PGE2 (dmPGE2), 20-ethyl PGE2 (ePGE2), 15(S)-15-methyl PGE2 (mPGE2), and PGE2. Glucocorticoids included hydrocortisone, dexamethasone, medrysone, alclometasone, or triamcinalone. After treatment, cells were washed with SFEM and centrifuged at 300 g for 10 minutes.
Total RNA was isolated then isolated from treated cells using Pico Pure RNA Isolation Kit (Molecular Devices, Sunnyvale, Calif., USA). […]
Results were analyzed using BioMark Real-Time PCR Analysis software. Average Cts were calculated from the sample replicates and delta-delta Cts (ΔΔCt) were calculated using the mean of 3 reference genes (GAPDH, HPRT1, QARS) against a vehicle only sample. […]

Assay [5] relates to CXCR4 mRNA in cord blood derived CD34+ cells. The assay can be described thus: CXCR4 qPCR using the Applied Biosystems StepOnePlus, cord blood CD34+ cells. In kind it is cell-based, human. Here is the method: as §1, §2, §3, §4

Molecules are shown by their SMILES.

As for `CCCCC(C)(C)[C@H](O)/C=C/[C@H]1[C@H](O)CC(=O)[C@@H]1C/C=C\CCCC(=O)O` [16,16-dimethyl PGE2], in assay [1], the “SDF1-driven cell migration (% of cells added), words” value is reported as “increased SDF1-driven cell migration compared to the DMSO control”. The “increase in the level of CXCR4 protein expression” value in assay [2] was found to be 12 fold. Moreover, the “increase in CXCR4 mRNA expression” value in assay [3] (CD34+ cells from mobilized peripheral blood, 4 hour treatment in SFEM, 10 μM each agent, against vehicle only sample) was determined as 27 fold; in assay [4] it was 22 fold; in assay [5] (cord blood derived CD34+ cells, 4 hour treatment in SFEM, 10 μM each agent, against vehicle only sample), 22 fold. For the same compound, the “CXCR4 RNA expression” value in assay [3] (mPB CD34+ cells, 10 μM, 2 and 4 hours at 37° C. in SFEM, compared to DMSO treated cells) is reported as “increase”; in assay [5] (cord blood CD34+ cells, 10 μM, 2 and 4 hours at 37° C. in SFEM, compared to DMSO treated cells), “increase”.
